Target: T1, Cholecystokinin receptor type A (Rattus norvegicus, UniProt P30551)
T1 sequence (P30551 whole entry): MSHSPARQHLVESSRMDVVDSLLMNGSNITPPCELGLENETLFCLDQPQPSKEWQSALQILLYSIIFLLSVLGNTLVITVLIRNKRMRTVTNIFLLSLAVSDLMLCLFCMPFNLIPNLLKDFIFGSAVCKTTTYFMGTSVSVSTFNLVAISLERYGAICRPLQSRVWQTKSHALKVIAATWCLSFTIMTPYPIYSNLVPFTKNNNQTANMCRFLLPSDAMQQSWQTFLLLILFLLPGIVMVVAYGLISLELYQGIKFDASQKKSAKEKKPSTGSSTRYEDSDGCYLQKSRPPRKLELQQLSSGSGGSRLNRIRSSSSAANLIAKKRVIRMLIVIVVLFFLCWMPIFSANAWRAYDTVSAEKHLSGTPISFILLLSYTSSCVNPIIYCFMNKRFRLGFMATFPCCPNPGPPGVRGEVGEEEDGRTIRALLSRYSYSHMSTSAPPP
Test: Inhibition of binding of [125I]- CCK-33 to rat pancreas

With CCCCCN(CCCCC)C(=O)C(CCC(=O)OCc1ccccc1)NC(=O)Nc1ccc(Cl)cc1 (stereo not given) the IC50 was 9300 nM.
CCCCCN(CCCCC)C(=O)C(CCC(=O)OCC)NC(=O)Nc1ccc(Cl)cc1 (stereo not given) was tested, and the IC50 was 1200 nM.
CCCCCN(CCCCC)C(=O)C(CCC(=O)N1CCCC1)NC(=O)Nc1ccc(Cl)cc1 (stereo not given) was tested, and the IC50 was 680 nM.
O=C(O)CCC(NC(=O)c1cc2ccccc2[nH]1)C(=O)N(C1CCCCC1)C1CCCCC1 (single isomer, unassigned) gave an IC50 of 59 nM.
CCCCCN(CCCCC)C(=O)C(CCC(=O)O)NC(=O)Nc1cccc(OC)c1 (single isomer, unassigned; 13) gave an IC50 of 540 nM.
Work on CCCCCN(CCCCC)C(=O)C(CCC(=O)O)NC(=O)Nc1cccc(OC)c1 (single isomer, unassigned; 14) yielded an IC50 of 4.5 nM.
Molecule CCCCCN(CCCCC)C(=O)C(CCC(=O)N1CCCC1)NC(=O)Nc1cccc(OC)c1 (single isomer, unassigned; 15) has an IC50 of 170 nM.
In the case of CCCCCN(CCCCC)C(=O)C(CCC(=O)N1CCCC1)NC(=O)Nc1cccc(OC)c1 (single isomer, unassigned; 16), the IC50 is reported as 120 nM.
Molecule CCCCCN(CCCCC)C(=O)C(CCC(=O)O)NC(=O)c1ccc(Cl)c(Cl)c1 (stereo not given) [LORGLUMIDE] has an IC50 of 18 nM.
CCCN(CCC)C(=O)C(CCC(=O)O)NC(=O)c1ccccc1 (stereo not given) [PROGLUMIDE] gave an IC50 of 250000 nM.

From ChEMBL document CHEMBL1125047, “Novel glutamic acid derived cholecystokinin receptor ligands” (J Med Chem, 1990)
